Results reported in patent US5707815A, “Mammalian monocyte chemoattractant protein receptors and assays using them” (Regents of the University of California, priority 1995, dated 1998).

Assays:
[1] = tested on: MCP-1RB receptor; assay type: cell-based, human
Description: To investigate inhibition of adenylyl cyclase activity, HEK-293 cells stably-transfected with the MCP-1RB receptor and the MIP-1α/RANTES receptor were grown until confluent in 24-well tissue culture dishes and labeled overnight with 2 μCi/ml of [^3 H]adenine (25-30 Ci/mmol) (New England Nuclear, Boston, Mass.) in MEM-EBSS supplemented with 10% FCS. The next day, the cells were washed by incubation at room temperature with 0.5 ml of serum-free MEM-EBSS media supplemented with 10 mM HEPES, 1 mg/ml BSA, and 1 mM IBMX (3-isobutyl-1-methylxanthine) for 5 min. […] The incubation was terminated by replacement of the media with 1 ml of ice-cold 5% TCA (trichloroacetic acid), 1 mM cAMP, and 1 mM ATP (Sigma). Following incubation at 4° C. for 30 min, the labeled [^3 H]ATP and [3H]cAMP pools were separated and quantitated by chromatography on Dowex 50W (200-400 mesh, hydrogen form, from Sigma) and neutral alumina columns (also from Sigma), as described in Hung, J. Biol. Chem. 267:20831-34 (1992) and Wong, Nature 351: 63-65 (1991). The 1 ml acid supernatant was loaded onto a 1-ml Dowex 50W column and the ATP pool eluted with 3 ml of H2 O. The Dowex 50W columns were then placed over 1-ml alumina columns, and 10 ml of H2 O was added to the Dowex resin and the eluant allowed to drop directly onto the neutral alumina. The cAMP pool was then eluted directly from the alumina with 5 ml of 0.1M imidazole/0.01mM sodium azide. The [^3 H]ATP and [^3 H]cAMP fractions were counted by liquid scintillation spectroscopy. The cAMP pool for each sample was normalized to its own ATP pool and expressed as a ratio by the equation (cAMP cpms/ATP cpms)×100. In each experiment full dose-response curves were generated and expressed as a percent of the forskolin control.
Inhibition of MCP-1RB receptor activation by bordetella pertussis toxin was investigated. Pertussis toxin (List Biological Labs, Inc., Campbell, Calif.) was dissolved in 0.01M sodium phosphate, pH 7.0, 0.05M sodium chloride and diluted into normal serum containing media at final concentrations of 0.1 ng/ml to 100 ng/ml, and incubated with cells overnight (14-16 h) at 37° C. The conditions of the Pertussis toxin treatment of the 293 cells were identical for calcium fluorimetric and adenylyl cyclase experiments. In the adenylyl cyclase experiments, the Pertussis toxin was added at the same time as [^3 H]adenine.
Dose response curves generated in the calcium fluorimetric and adenylyl cyclase inhibition assays were fit by a nonlinear least squares program to the logistic equation:
Effect=max effect/[1+(EC50 /(agonist)^n)]
where n and EC50 represent the Hill coefficient and the agonist concentration that elicited a half-maximal response, respectively, and were derived from the fitted curve. Curve fitting was done with the computer program "Prism" (by Graph Pad, San Diego, Calif.). Results represent the mean ±SE. The 95% confidence intervals (CI) of the EC50 and IC50 values, when given, were calculated from the log EC50 and IC50 values, respectively.

[2] = tested on: monocyte; conditions: Yoshimura, J. Immunol. 145:292-97 (1990); cited from earlier work

monocyte chemoattractant protein-1 [MCP-1]
selectivity for the MCP-1 receptor [1]: at least 9000 fold
block of forskolin-induced increase of cAMP ([1]; co-addition with forskolin): 78%
reduction of basal cAMP accumulation ([1]; no forskolin, p<0.01): 55%
EC50 for monocyte chemotaxis [2]: subnanomolar
